Laboratory results as given in US20250011303A1, “SMALL MOLECULE MODULATORS OF IL-17A, METHODS OF MAKING AND METHODS OF USING THEREOF” (ASCLETIS BIOSCIENCE CO., LTD, priority 2023, published 2025).

Tests used:
[1] = system: HEK-Blue IL-17 cells with rhIL-17A/A; test: HEK-Blue IL-17 cell assay (SEAP reporter, rhIL-17A/A stimulation); type: cell-based, human; details: Homo sapiens, HEK-Blue, 20 h, 20 hours incubation, absorbance at 405 nm, read-out: IC50 in HEK-Bule cell Assay
Description: • 1. The test Compounds were 3-fold serial diluted from 10 mM for 10 doses in DMSO. • 2. Prepare Reference Compounds (IL-17A-Inhibitor-1) were 3-fold serial diluted from 1 mM for 10 doses in DMSO. • 3. Prepare 1000× Positive control (1 mM IL-17A-Inhibitor-1) and 1000× vehicle control (100% DMSO).
• a) Cells were cultured as the HEK-Blue™ IL-17 technical data sheet recommended. HEK-Blue IL-17 cells were assayed in the exponential growth phase. • b) Aspirate growth medium and rinse cells twice with PBS to remove phenol red. • c) Resuspend cells in test medium to a proper concentration. • d) Only cells with viability greater than 90% were used for assays. • e) Transfer 25 nl of compound dilutions into 384-well assay plates using Echo655; • f) Seed 25 ul of HEK-Blue IL-17 cells at 8,000 cells/well into 384-well plate with rhIL-17A/A. • g) Cells were incubated for 20 hours at 37° C. under 5% CO2 atmosphere. • h) Transfer 2 ul of cells supernatant into per well of 384-well assay plates. • i) Add 20 ul of PNPP substrate. • j) Measure the Absorbance at 405 nm on Envision 2105 plate reader.
RLU signal (LUMcmpd) is calculated for each well.
% Inhibition is calculated as follow: […]
Signalave_pc: The average signal for the positive controls across the plate.
Signalave_vc: The average signal for negative controls across the plate.
Calculate IC50 and Plot effect-dose curve of cmpds:
Calculate IC50 by fitting % Inhibition values and log of compound concentrations to nonlinear regression (dose response−variable slope) with Graphpad 8.0.

[2] = Pharmacokinetics after oral gavage in fasted SD rats; type: in vivo; details: PO 10 mg per kilogram, plasma; for AUC: 0.25-24 hours; for bioavailability: rat, 10 mg per kilogram body weight
Description: Compounds of the present application were formulated in 40% PEG400/10% solutol/2% Tween 80/48% saline (v/v/v/v), and administered via oral gavage (PO) at the dosages of 10 mg per kilogram body weight in fasted SD rats. Plasma samples were collected at 0.25, 0.5, 1, 2, 4, 8, and 24 hours post dosing. Compound concentration was determined by LC-MS and pharmacokinetics parameters were calculated by WinNonlin 8.2 using Non-Compartmental Analysis model.

| SMILES | IC50 [1] | AUC [2] | bioavailability [2] |
| --- | --- | --- | --- |
| CC(C)[C@H]1C[C@@H](C(=O)N2CC(F)(F)C2)c2ccc(NC(=O)[C@@H](NC(=O)c3ccnn3C(C)C)C(C3CC3)C3CC3)cc2O1 [Compound 161] | 0.0433 µM | 9703 ng · h/m | 63.5% |
| CC(C)[C@H]1C[C@@H](C(=O)N2CC(F)(F)C2)c2ccc(NC(=O)[C@@H](NC(=O)c3ccnn3C(C)C)C3CCCCCC3)cc2O1 [Compound 204] | 0.0466 µM | 18980 ng · h/m | 34.8% |
| CC(C)n1nccc1C(=O)N[C@H](C(=O)Nc1ccc2c(c1)OC1(CCC(F)(F)CC1)CC2C(=O)N1CC(F)(F)C1)C1CCCCCC1 (stereo partly shown) [Compound 225] | 0.0449 µM | 7840 ng · h/m | 57.6% |
| CC(C)n1nccc1C(=O)N[C@H](C(=O)Nc1ccc2c(c1)OC(C1CC(F)(F)C1)CC2C(=O)N1CC(C(F)F)C1)C1CCCCCC1 (stereo partly shown) [Compound 232] | 0.0771 µM |  |  |
| CC1CN(C(=O)N2CC(F)(F)C2)c2ccc(NC(=O)[C@@H](NC(=O)c3ccnn3C(C)C)C3CCCCCC3)cc2O1 (stereo partly shown) [Compound 235] | 0.0719 µM |  |  |
| CC(C)n1nccc1C(=O)N[C@H](C(=O)Nc1cc2c(cc1F)C(C(=O)N1CC(F)(F)C1)CC1(CCOCC1)O2)C1CCCCCC1 (stereo partly shown) [Compound 236] | 0.0149 µM |  |  |
| CC(C)n1nccc1C(=O)N[C@H](C(=O)Nc1cc2c(cc1F)C(C(=O)N1CC(F)(F)C1)CC1(CCOCC1)O2)C(C1CC1)C1CC1 (stereo partly shown) [Compound 237] | 0.0261 µM |  |  |
| CC(C)n1nccc1C(=O)N[C@H](C(=O)Nc1ccc2c(c1)OC1(CCOCC1)CC2C(=O)N1CC(F)(F)C1)[C@H]1CC[C@H](C)CC1 (stereo partly shown) [Compound 239] | 0.0311 µM |  |  |
| CC(C)n1nccc1C(=O)N[C@H](C(=O)Nc1ccc2c(c1)O[C@@H](C1CC(F)(F)C1)C[C@H]2C(=O)N1CC(F)(F)C1)C1CCC(F)(F)CC1 [Compound 240] | 0.0483 µM |  |  |
| CC(C)n1nccc1C(=O)N[C@H](C(=O)Nc1ccc2c(c1)O[C@@H](C1CC(F)(F)C1)C[C@H]2C(=O)N1CC(F)(F)C1)[C@H]1CC[C@H](C)CC1 [Compound 241] | 0.0159 µM |  |  |
| CC(C)n1nccc1C(=O)N[C@H](C(=O)Nc1ccc2c(c1)OC1(CCC(F)(F)CC1)CC2C(=O)N1CC(F)(F)C1)C(C1CC1)C1CC1 (stereo partly shown) [Compound 243] | 0.122 µM |  |  |
| CC(C)n1nccc1C(=O)N[C@H](C(=O)Nc1cc2c(cc1F)C(C(=O)N1CC(F)(F)C1)CC1(CCOCC1)O2)[C@H]1CC[C@H](C)CC1 (stereo partly shown) [Compound 244] | 0.0135 µM |  |  |
| CC(C)n1nccc1C(=O)N[C@H](C(=O)Nc1cc2c(cc1F)[C@H](C(=O)N1CC(F)(F)C1)C[C@H](C1CC(F)(F)C1)O2)C(C1CC1)C1CC1 [Compound 245] | 0.022 µM |  |  |
| CC(C)n1nccc1C(=O)N[C@H](C(=O)Nc1ccc2c(c1)OC1(CCOCC1)CN2C(=O)N1CC(F)(F)C1)C(C1CC1)C1CC1 [Compound 246] | 0.0182 µM |  |  |
| CC(C)C1CN(C(=O)N2CC(F)(F)C2)c2ccc(NC(=O)[C@@H](NC(=O)c3ccnn3C(C)C)C(C3CC3)C3CC3)cc2O1 (stereo partly shown) [Compound 247] | 0.0304 µM |  |  |
| CC(C)n1nccc1C(=O)N[C@H](C(=O)Nc1cc2c(cc1F)[C@H](C(=O)N1CC(F)(F)C1)C[C@H](C1CC(F)(F)C1)O2)[C@H]1CC[C@H](C)CC1 [Compound 248] | 0.0244 µM | 6093 ng · h/m | 70.7% |
| CC(C)n1nccc1C(=O)N[C@H](C(=O)Nc1cc2c(cc1F)[C@H](C(=O)N1CC(F)(F)C1)C[C@H](C1CC(F)(F)C1)O2)C1CCC(F)(F)CC1 [Compound 249] | 0.0993 µM |  |  |
